Data: patent US9017644B2, “Methods of treating autoimmune disorders and/or inflammatory disorders” (priority 2008, dated 2015)

Assays:
[1] = tested on: developing type II collagen arthritis; test: Rat collagen arthritis model, prophylactic IV treatment 3x/week, day 0-16 (Example 3); type: in vivo
Excerpt: (§1) Rat collagen induced arthritis is an experimental model of polyarthritis that has been widely used for preclinical testing of numerous anti-arthritic agents. Rat type II collagen arthritis results when rats are immunized against homologous or heterologous type II collagen. […] As used herein “significant” means that p≦0.05. Unless specified as “normal control” or “disease control” reference to “animal” means a rat with developing type II collagen arthritis.
(§2) Bovine Type II collagen (Sigma) was diluted with 0.1N acetic acid to a concentration of 4 mg/ml. and emulsified with an equal volume of Freund's incomplete adjuvant (Sigma).
The rats were anesthetized and given collagen injections spread over 3 subcutaneous sites on back on day 0 and day 6.

[2] = tested on: developing type II collagen arthritis; test: Rat collagen arthritis model, dose responsive efficacy, IV or SC 2x/week (Example 4); type: in vivo; details: IV 2x/week, read-out: average ED50 value for efficacy (AUC+Final Paw Weight)
Excerpt: as §1, §2
(§3) The rats were anesthetized and given collagen injections spread over 3 subcutaneous sites on back on day 0 and day 6. […] Rats were weighed on days 0, 3, 6, and 9-18 of the study, and caliper measurements of ankles were taken every day beginning on day 9 (or day 0 of arthritis). After final body weight measurement on day 18, animals were euthanized, blood was drawn for serum (for clinical chemistries) and CBC analysis and tissues were collected. No clinical chemistry or CBC analysis was done for groups 5s and 12s, however these groups were sampled for drug levels for pharmacokinetic analysis.

[3] = Lewis, rat, in vivo, 18 day
Excerpt: as §3
Complete Blood Counts (CBC) and Clinical Chemistries were evaluated for each group.

[4] = tested on: developing type II collagen arthritis; test: Rat collagen arthritis model, treatment alone or in combination with etanercept (Example 5); type: in vivo; details: for % decrease in ankle diameter verses disease control, drug alone: day 17
Excerpt: as §1
Bovine Type II collagen (Sigma) was diluted with 0.1N acetic acid to a concentration of 4 mg/ml. and emulsified with an equal volume of Freund's incomplete adjuvant (Sigma). Female Lewis rats (Charles River) were randomized by weigh into 10 study groups Table 3 identifies the groups that were used for evaluation of efficacy and Table 4 identifies the groups used for evaluation of toxicity.
Animals were anesthetized and immunized at the base of the tail and two sites on the back on day 0 and day 6. Animals were weighed on days 0, 3, 9-24. […] Treatment was administered either alone or in combination with etanercept, (1 mg/kg) dosed subcutaneously on days 9, 12 and 15. […] The remaining 4 animals were sacrificed for necropsy on day 16.

[5] = Observation on high dose MTX dosing preparation; type: physicochemical; details: 0.75 mg/kg dose preparation
[6] = batches 70 mg/kg, methotrexate 0.2 mg/kg, FIG. 5

Compound	inhibition of ankle diameter AUC as compared to disease controls ([1]; Batch 1 and Batch 2 70 mg/kg, MTX 0.2 mg/kg, IV 3x/week, 17 day study) [%]	inhibition of final paw weights as compared to disease controls ([1]; Batch 1 and Batch 2 70 mg/kg, MTX 0.2 mg/kg, IV 3x/week, day 17) [%]	ankle cartilage damage, representative photomicrograph [1, 6]	ankle pannus and bone destruction, representative photomicrograph [1, 6]	ankle synovitis, representative photomicrograph [1, 6]	ED50 [2] [mg/kg]	therapeutic index, considering bone marrow suppression at 0.5 mg/kg ([3]; 0.5 mg/kg)	dose value for life threatening toxicity (bone marrow suppression) ([3]; iv) [mg/kg]	% decrease in ankle diameter verses disease control, drug alone ([4]; 0.25 mg/kg PO 2x/week) [%]	decreases in ankle diameter from disease control, alone or in combination with etanercept ([4]; ATI-101 5, 20 and 65 mg/kg, MTX 0.25 mg/kg)	behaviour of high dose preparation in solution [5]	% decrease in ankle diameter verses disease control, drug alone ([4]; 1 mg/kg SC days 9, 12, 15) [%]
CN(Cc1cnc2nc(N)nc(N)c2n1)c1ccc(C(=O)N[C@@H](CCC(=O)O)C(=O)O)cc1 [MTX, Methotrexate]	54	46	minimal	minimal	moderate	0.25	less than 2	0.75	52	Significant decreases	did not remain completely in solution	
etanercept												37
